Starred links: 1 amine or outer side, 2 acyl side, 3 side chain; linkers in the order of their positions; H or OH if unused. Non-standard residues stand in square brackets, D forms with d. Residues, ends and D or L forms follow the SMILES beside them. *: point of attachment. DOTA = O=C(O)CN1CCN(CC(=O)O)CCN(CC(=O)*)CCN(CC(=O)O)CC1; d(γGlu) = O=C(O)[C@@H](CCC(=O)[*:2])N[*:1]; Bip = N[C@@H](Cc1ccc(-c2ccccc2)cc1)C(=O)O; 1Nal = N[C@@H](Cc1cccc2ccccc12)C(=O)O; 2Nal = N[C@@H](Cc1ccc2ccccc2c1)C(=O)O; PEG5 = NCCOCCOCCOCCOCCOCCC(=O)O; NMeNle = CCCC[C@H](NC)C(=O)O; Nle = CCCC[C@H](N)C(=O)O

The target in one experiment is T1, CCK-2R (Rattus norvegicus, UniProt P30553).
T1 construct: The CCK-2R expressing rat pancreatic tumor cells AR4-2J; host or cells: AR4-2J rat pancreatic tumor cells
T1 sequence (P30553 1-452): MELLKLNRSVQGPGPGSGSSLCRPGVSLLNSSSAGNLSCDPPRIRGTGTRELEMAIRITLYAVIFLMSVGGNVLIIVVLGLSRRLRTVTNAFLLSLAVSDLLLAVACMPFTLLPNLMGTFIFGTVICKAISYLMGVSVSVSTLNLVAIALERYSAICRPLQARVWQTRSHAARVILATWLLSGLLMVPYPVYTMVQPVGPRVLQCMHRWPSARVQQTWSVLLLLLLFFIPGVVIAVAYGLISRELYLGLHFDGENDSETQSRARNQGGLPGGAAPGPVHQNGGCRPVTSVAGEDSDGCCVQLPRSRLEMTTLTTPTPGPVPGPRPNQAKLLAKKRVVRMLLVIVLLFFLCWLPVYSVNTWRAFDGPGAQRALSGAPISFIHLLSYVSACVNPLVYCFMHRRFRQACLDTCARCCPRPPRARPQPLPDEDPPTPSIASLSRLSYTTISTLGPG
The experiment in a line: Determination of IC50: CCK-2R affinity on AR4-2J cells, competition with [^177Lu]Lu-DOTA-PP-F11N. In kind it is binding. The settings on record: AR4-2J cells; references ^natLu-labeled, other peptides without chelator; read-out: IC50 [nM] (n = 3). Here is the method:
AR4-2J cells were harvested 24 ± 2 h before the experiment and seeded in 24-well plates (2.0 × 10^5 cells in 1 mL/well). After removal of the nutrient medium (RPMI 1640, 5 mM L-Gln, 5 mL non-essential amino acids (100×), 10% FCS), the cells were washed once with 500 µL PBS. Thereafter, 200 µL nutrient medium (5% BSA, v/v) were added. Next, 25 µL per well of solutions containing either nutrient medium (5% BSA, v/v) as control or the respective compound in increasing concentration (10^-10 - 10^-4 M), were added with subsequent addition of 25 µL [^177Lu]Lu-DOTA-PP-F11N (0.3 pmol/well).
All experiments were performed in triplicate for each concentration. After 3 h incubation at 37 °C, the experiment was terminated by removal of the medium and consecutive rinsing with 300 µL PBS. The media of both steps were combined in one fraction and represent the amount of free radiolabeled reference. Afterwards, the cells were lysed with 300 µL of 1 M NaOH for at least 15 min and united with the 300 µL NaOH of the following washing step. Quantification of bound and free radiolabeled reference was accomplished in a γ-counter. IC50 determination for each conjugate was repeated twice.
For the compound `CCCC[C@H](NC(=O)[C@H](Cc1c[nH]c2ccccc12)NC(=O)CNC(=O)[C@H](Cc1ccc(O)cc1)NC(=O)[C@H](C)NC(=O)CC[C@@H](N)C(=O)O)C(=O)N[C@@H](CC(=O)O)C(=O)N[C@@H](Cc1ccc(-c2ccccc2)cc1)C(N)=O` [CCK-38, H-γ-glu-Ala-Tyr-Gly-Trp-Nle-Asp-Bip-NH2] ({d(γGlu)}-AYGW[Nle]D[Bip]-NH2), the IC50 (commonly the concentration at which inhibition is half-maximal) was over 1000 nM.
`CSCC[C@H](NC(=O)[C@H](Cc1c[nH]c2ccccc12)NC(=O)CNC(=O)[C@H](Cc1ccc(O)cc1)NC(=O)[C@H](C)NC(=O)[C@@H](CCC(=O)O)NC(=O)[C@@H](CCC(=O)O)NC(=O)[C@@H](CCC(=O)O)NC(=O)[C@@H](CCC(=O)O)NC(=O)[C@@H](CCC(=O)O)NC(=O)[C@@H](CCC(=O)O)NC(=O)CN1CCN(CC(=O)O)CCN(CC(=O)O)CCN(CC(=O)O)CC1)C(=O)N[C@@H](CC(=O)O)C(=O)N[C@@H](Cc1ccccc1)C(N)=O` [CP04, DOTA-glu^1-glu^2-glu^3-glu^4-glu^5-glu^6-Ala^7-Tyr^8-Gly^9-Trp^10-Met^11-Asp^12-Phe^13-NH2, reference compound]: the IC50 stood at 11.2 ± 0.2 nM.
`CCCC[C@@H](C(=O)N[C@@H](CC(=O)O)C(=O)N[C@@H](Cc1cccc2ccccc12)C(N)=O)N(C)C(=O)[C@H](Cc1c[nH]c2ccccc12)NC(=O)CNC(=O)[C@H](Cc1ccc(O)cc1)NC(=O)[C@H](C)NC(=O)CC[C@@H](NC(=O)CN1CCN(CC(=O)O)CCN(CC(=O)O)CCN(CC(=O)O)CC1)C(=O)O` [DOTA-γ-MGS5, DOTA-γ-glu^6-Ala^7-Tyr^8-Gly^9-Trp^10-(N-Me)Nle^11-Asp^12-1-Nal^13-NH2, reference compound] ({DOTA-d(γGlu)}-AYGW[NMeNle]D[1Nal]-NH2): the IC50 was found to be 4.9 ± 0.8 nM.
Still for that read-out and setting: the same measure for `CCCC[C@@H](C(=O)N[C@@H](CC(=O)O)C(=O)N[C@@H](Cc1ccc2ccccc2c1)C(N)=O)N(C)C(=O)[C@@H](N)Cc1c[nH]c2ccccc12` [H-Trp-(N-Me)Nle-Asp-2-Nal-NH2] (H-W[NMeNle]D[2Nal]-NH2): 102 ± 9 nM; for `CCCC[C@@H](C(=O)N[C@@H](CC(=O)O)C(=O)N[C@@H](Cc1ccccc1)C(N)=O)N(C)C(=O)[C@@H](N)Cc1c[nH]c2ccccc12` [H-Trp-(N-Me)Nle-Asp-Phe-NH2] (H-W[NMeNle]DF-NH2): 4.5 ± 0.6 nM.
Take `CCCC[C@@H](C(=O)N[C@@H](CC(=O)O)C(=O)N[C@@H](Cc1c[nH]c2ccccc12)C(N)=O)N(C)C(=O)[C@@H](N)Cc1c[nH]c2ccccc12` [H-Trp-(N-Me)Nle-Asp-Trp-NH2] (H-W[NMeNle]DW-NH2): the IC50 is 18.8 ± 0.5 nM.
For `CCCC[C@@H](C(=O)N[C@@H](CC(=O)O)C(=O)N[C@@H](Cc1ccc(O)cc1)C(N)=O)N(C)C(=O)[C@@H](N)Cc1c[nH]c2ccccc12` [H-Trp-(N-Me)Nle-Asp-Tyr-NH2] (H-W[NMeNle]DY-NH2), the IC50 was 5.7 ± 0.5 nM.
In the case of `CCCC[C@H](NC(=O)[C@@H](N)Cc1c[nH]c2ccccc12)C(=O)N[C@@H](CC(=O)O)C(=O)N[C@@H](Cc1cccc2ccccc12)C(N)=O` [H-Trp-Nle-Asp-1-Nal-NH2] (H-W[Nle]D[1Nal]-NH2), the IC50 turned out to be 297 ± 16 nM.
On the same count and under the same terms, the same measure for `CCCC[C@H](NC(=O)[C@@H](N)Cc1c[nH]c2ccccc12)C(=O)N[C@@H](CC(=O)O)C(=O)N[C@@H](Cc1ccccc1)C(N)=O` [H-Trp-Nle-Asp-Phe-NH2] (H-W[Nle]DF-NH2): 466 ± 88 nM.

The same experiment, now with this note: text values without printed unit; ^natLu-labeled; read-out: IC50.
On to `CCCC[C@@H](C(=O)N[C@@H](CC(=O)O)C(=O)N[C@@H](Cc1cccc2ccccc12)C(N)=O)N(C)C(=O)[C@H](Cc1c[nH]c2ccccc12)NC(=O)CCOCCOCCOCCOCCOCCNC(=O)CN1CCN(CC(=O)O)CCN(CC(=O)O)CCN(CC(=O)O)CC1` [DOTA-CCK-50, DOTA-(PEG)4-Trp-(N-Me)Nle-Asp-1-Nal-NH2] ({DOTA-PEG5}-W[NMeNle]D[1Nal]-NH2), for which the IC50 came to 8.84 ± 1.25 nM.
